Here are results for 44 molecules from patent publication US12384776B2, “Compounds and uses thereof” (Foghorn Therapeutics Inc., priority 2019, dated 2025).

Nanoluciferase-BRD9 fusion protein (3×FLAG-NLuc-BRD9) in SYO-1 cells, sequence (Q9H8M2 whole entry, the tested form may be a part): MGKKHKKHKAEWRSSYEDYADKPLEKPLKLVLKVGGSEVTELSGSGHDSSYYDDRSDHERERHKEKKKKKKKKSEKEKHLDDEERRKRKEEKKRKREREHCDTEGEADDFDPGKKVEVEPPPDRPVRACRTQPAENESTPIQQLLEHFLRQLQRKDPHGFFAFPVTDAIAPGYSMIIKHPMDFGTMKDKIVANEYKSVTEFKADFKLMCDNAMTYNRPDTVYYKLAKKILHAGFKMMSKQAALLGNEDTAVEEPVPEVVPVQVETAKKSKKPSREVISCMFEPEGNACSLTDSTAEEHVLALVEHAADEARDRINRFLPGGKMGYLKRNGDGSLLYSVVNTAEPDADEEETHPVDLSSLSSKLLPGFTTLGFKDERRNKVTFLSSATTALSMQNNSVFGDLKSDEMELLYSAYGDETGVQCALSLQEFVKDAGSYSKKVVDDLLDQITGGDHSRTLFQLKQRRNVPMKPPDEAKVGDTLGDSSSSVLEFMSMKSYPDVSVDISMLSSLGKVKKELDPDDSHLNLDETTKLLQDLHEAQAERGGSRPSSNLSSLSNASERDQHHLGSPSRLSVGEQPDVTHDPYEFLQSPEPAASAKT

The target of the experiment is Nanoluciferase-BRD9 fusion protein (3×FLAG-NLuc-BRD9) in SYO-1 cells (Homo sapiens (Human), UniProt Q9H8M2). Put plainly: SYO1 BRD9 NanoLuc degradation assay. The following applies: SYO-1 cells expressing 3×FLAG-NLuc-BRD9, 6 hours incubation, top dose 1 μM. The format is cell-based. The procedure, abridged:
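Stable SYO-1 line expressing 3×FLAG-NLuc-BRD9, treated with 10-point 3-fold dilutions (top 1 μM final) for 6 hours. Nanoluciferase luminescence read with Nano-Glo reagent. % inhibition relative to DMSO (high control) and 1 μM reference BRD9 degrader (low control).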
As usually defined, the IC50 is the point on the concentration scale where inhibition reaches its midpoint. `CNC(=O)N1CCc2c(-c3cc(OC)c(CN4CCC5(CC4)CCN(C(C)(C)C#Cc4ccc6c(c4)C(=O)N(C4CCC(=O)NC4=O)C6=O)C5)c(OC)c3)cn(C)c(=O)c2C1` (centres unmarked) [Compound D137] came in with a half-maximal inhibitory concentration (IC50) of 10 to 100 nM.

Molecule `CNC(=O)N1CCc2c(-c3cc(OC)c(CN4CC5CC4CC5CCN4CCN(c5ccc6c(c5)C(=O)N(C5CCC(=O)NC5=O)C6=O)CC4)c(OC)c3)cn(C)c(=O)c2C1` (centres unmarked) [Compound D138] came in with an IC50 of less than 10 nM.

On to `CNC(=O)N1CCc2c(-c3cc(OC)c(CN4CCN(CCN5CCN(c6ccc7c(c6)C(=O)N(C6CCC(=O)NC6=O)C7=O)CC5)CC4)c(OC)c3)cn(C)c(=O)c2C1` (centres unmarked) [Compound D139], for which the IC50 was less than 10 nM.

Turning to `CNC(=O)N1CCc2c(-c3cc(OC)c(CN4CCC5(CC4)CN(CCCN4CCN(c6ccc7c(c6)C(=O)N(C6CCC(=O)NC6=O)C7=O)CC4)CCO5)c(OC)c3)cn(C)c(=O)c2C1` (centres unmarked) [Compound D140], the IC50 was less than 10 nM.

As to `CNC(=O)N1CCc2c(-c3cc(OC)c(CN4[C@H](C)CN(CCC5CCN(c6ccc7c(c6)C(=O)N(C6CCC(=O)NC6=O)C7=O)CC5)C[C@@H]4C)c(OC)c3)cn(C)c(=O)c2C1` (some centres unmarked) [Compound D141], the IC50 was less than 10 nM.

`CNC(=O)N1CCc2c(-c3cc(OC)c(CN4CC(C#Cc5ccc6c(c5)C(=O)N(C5CCC(=O)NC5=O)C6=O)C4)c(OC)c3)cn(C)c(=O)c2C1` (centres unmarked) [Compound D142] gave a concentration for half-maximal inhibition (IC50) of less than 10 nM.

The molecule `CNC(=O)N1CCc2c(-c3cc(OC)c(CN4CCC(C#Cc5ccc6c(c5)C(=O)N(C5CCC(=O)NC5=O)C6=O)CC4)c(OC)c3)cn(C)c(=O)c2C1` (centres unmarked) [Compound D143] gave a half-maximal inhibitory concentration (IC50) of less than 10 nM.

Consider `CNC(=O)N1CCc2c(-c3cc(OC)c(CN4CC(C(=O)N5CC6(CCN(c7ccc8c(c7)C(=O)N(C7CCC(=O)NC7=O)C8=O)C6)C5)C4)c(OC)c3)cn(C)c(=O)c2C1` (centres unmarked) [Compound D144], for which the IC50 fell in the range of 10 to 100 nM.

`CNC(=O)N1CCc2c(-c3cc(OC)c(CN4CCC(CCN5C(C)CN(c6ccc7c(c6)C(=O)N(C6CCC(=O)NC6=O)C7=O)CC5C)CC4)c(OC)c3)cn(C)c(=O)c2C1` (centres unmarked) [Compound D145]: the IC50 is less than 10 nM.

For `CNC(=O)N1CCc2c(-c3cc(OC)c(CN4CC5(CC(N6CCN(c7ccc8c(c7)C(=O)N(C7CCC(=O)NC7=O)C8=O)CC6)C5)C4)c(OC)c3)cn(C)c(=O)c2C1` (centres unmarked) [Compound D146], the IC50 is less than 10 nM.

On to `CNC(=O)N1CCc2c(-c3cc(OC)c(CN4CCC(F)(CN5CCN(c6ccc7c(c6)C(=O)N(C6CCC(=O)NC6=O)C7=O)CC5)CC4)c(OC)c3)cn(C)c(=O)c2C1` (centres unmarked) [Compound D147], for which the IC50 is less than 10 nM.

Take `CNC(=O)N1CCc2c(-c3cc(OC)c(CN4CCC(CCN5CCN(c6ccc7c(c6)C(=O)N(C6CCC(=O)NC6=O)C7=O)CC5)C4)c(OC)c3)cn(C)c(=O)c2C1` (centres unmarked) [Compound D148]: the IC50 is 10 to 100 nM.

As for `CNC(=O)N1CCc2c(-c3cc(OC)c(CN4CCC(CN(C)C5CC(Oc6ccc7c(c6)C(=O)N(C6CCC(=O)NC6=O)C7=O)C5)CC4)c(OC)c3)cn(C)c(=O)c2C1` (centres unmarked) [Compound D149], the concentration for half-maximal inhibition (IC50) was less than 10 nM.

`COc1cc(-c2cn(C)c(=O)c3c2CCN(C(=O)NCCN2CCN(c4ccc5c(c4)C(=O)N(C4CCC(=O)NC4=O)C5=O)CC2)C3)cc(OC)c1CN(C)C` (centres unmarked) [Compound D150] returned an IC50 of 10 to 100 nM.

`CNC(=O)N1CCc2c(-c3cc(OC)c(CN4CCOC(CCCN5CCN(c6ccc7c(c6)C(=O)N(C6CCC(=O)NC6=O)C7=O)CC5)C4)c(OC)c3)cn(C)c(=O)c2C1` (centres unmarked) [Compound D151] came in with an IC50 of less than 10 nM.

Take `CNC(=O)N1CCc2c(-c3cc(OC)c(CN4CCOC(CCN5CCN(c6ccc7c(c6)C(=O)N(C6CCC(=O)NC6=O)C7=O)CC5)C4)c(OC)c3)cn(C)c(=O)c2C1` (centres unmarked) [Compound D152]: the IC50 is less than 10 nM.

For the molecule `CNC(=O)N1CCc2c(-c3cc(OC)c(CN4CCC(CCN5C6CC5CN(c5ccc7c(c5)C(=O)N(C5CCC(=O)NC5=O)C7=O)C6)CC4)c(OC)c3)cn(C)c(=O)c2C1` (centres unmarked) [Compound D153], the IC50 was 10 to 100 nM.

The molecule `CNC(=O)N1CCc2c(-c3cc(OC)c(CN4CCC(C(F)(F)CN5CCN(c6ccc7c(c6)C(=O)N(C6CCC(=O)NC6=O)C7=O)CC5)CC4)c(OC)c3)cn(C)c(=O)c2C1` (centres unmarked) [Compound D154] displayed an IC50 of less than 10 nM.

Take `CNC(=O)N1CCc2c(-c3cc(OC)c(CN4CCC(CCN5CCN(c6ccc7c(c6)C(=O)N(C6CCC(=O)NC6=O)C7=O)CC5)C(F)(F)C4)c(OC)c3)cn(C)c(=O)c2C1` (centres unmarked) [Compound D155]: the 50% inhibitory concentration (IC50) is less than 10 nM.

`CNC(=O)N1CCc2c(-c3cc(OC)c(CNC4CC45CCN(c4ccc6c(c4)C(=O)N(C4CCC(=O)NC4=O)C6=O)C5)c(OC)c3)cn(C)c(=O)c2C1` (centres unmarked) [Compound D156] had a concentration for half-maximal inhibition (IC50) of less than 10 nM.

In turn, `CNC(=O)N1CCc2c(-c3cc(OC)c(CNC4CC5(C4)CN(c4ccc6c(c4)C(=O)N(C4CCC(=O)NC4=O)C6=O)C5)c(OC)c3)cn(C)c(=O)c2C1` (centres unmarked) [Compound D158] showed a concentration for half-maximal inhibition (IC50) of less than 10 nM.

`CNC(=O)N1CCc2c(-c3cc(OC)c(CN4CC(CN5CC6(CCN(c7ccc8c(c7)C(=O)N(C7CCC(=O)NC7=O)C8=O)C6)C5)C4)c(OC)c3)cn(C)c(=O)c2C1` (centres unmarked) [Compound D167] displayed an IC50 of 10 to 100 nM.

Take `CNC(=O)N1CCc2c(-c3cc(OC)c(CN4CC(CN5CCN(c6ccc7c(c6)C(=O)N(C6CCC(=O)NC6=O)C7=O)CC5)C4)c(OC)c3)cn(C)c(=O)c2C1` (centres unmarked) [Compound D168]: the concentration for half-maximal inhibition (IC50) is 10 to 100 nM.

`CNC(=O)N1CCc2c(-c3cc(OC)c(CN4CCC(CN5CCN(c6ccc7c(c6)C(=O)N(C6CCC(=O)NC6=O)C7=O)CC5)C4)c(OC)c3)cn(C)c(=O)c2C1` (centres unmarked) [Compound D169] displayed a half-inhibitory concentration (IC50) of less than 10 nM.

Molecule `CNC(=O)N1CCc2c(-c3cc(OC)c(CN4CCN(C5CCN(c6ccc7c(c6)C(=O)N(C6CCC(=O)NC6=O)C7=O)CC5)CC4)c(OC)c3)cn(C)c(=O)c2C1` (centres unmarked) [Compound D170] returned a 50% inhibitory concentration (IC50) of less than 10 nM.

As to `CNC(=O)N1CCc2c(-c3cc(OC)c(CN4CCC(CCN(C)C5CN(c6ccc7c(c6)C(=O)N(C6CCC(=O)NC6=O)C7=O)C5)CC4)c(OC)c3)cn(C)c(=O)c2C1` (centres unmarked) [Compound D171], the IC50 was less than 10 nM.

`CNC(=O)N1CCc2c(-c3cc(OC)c(CN4CCC(CCN5CC6CC5CN6c5ccc6c(c5)C(=O)N(C5CCC(=O)NC5=O)C6=O)CC4)c(OC)c3)cn(C)c(=O)c2C1` (centres unmarked) [Compound D172] returned an IC50 of less than 10 nM.

Turning to `CNC(=O)N1CCc2c(-c3cc(OC)c(CN4CCC(CCN(C)C5CCCN(c6ccc7c(c6)C(=O)N(C6CCC(=O)NC6=O)C7=O)C5)CC4)c(OC)c3)cn(C)c(=O)c2C1` (centres unmarked) [Compound D173], the IC50 was less than 10 nM.

On to `CNC(=O)N1CCc2c(-c3cc(OC)c(CN4CCC(C5(CN6CCN(c7ccc8c(c7)C(=O)N(C7CCC(=O)NC7=O)C8=O)CC6)CC5)CC4)c(OC)c3)cn(C)c(=O)c2C1` (centres unmarked) [Compound D174], for which the IC50 is less than 10 nM.

For the molecule `CNC(=O)N1CCc2c(-c3cc(OC)c(CN4CCC5(CC4)CN(C(=O)CCN4CCN(c6ccc7c(c6)C(=O)N(C6CCC(=O)NC6=O)C7=O)CC4)CCO5)c(OC)c3)cn(C)c(=O)c2C1` (centres unmarked) [Compound D175], the 50% inhibitory concentration (IC50) lay within 100 to 1000 nM.

`CNC(=O)N1CCc2c(-c3cc(OC)c(CN4CC5(CCC(N6Cc7cc8c(cc7C6)C(=O)N(C6CCC(=O)NC6=O)C8=O)CC5)C4)c(OC)c3)cn(C)c(=O)c2C1` (centres unmarked) [Compound D176] returned an IC50 of 10 to 100 nM.

With `CNC(=O)N1CCc2c(-c3cc(OC)c(CN4CC5(CC(N6Cc7cc8c(cc7C6)C(=O)N(C6CCC(=O)NC6=O)C8=O)C5)C4)c(OC)c3)cn(C)c(=O)c2C1` (centres unmarked) [Compound D177], the concentration for half-maximal inhibition (IC50) was in the range of 10 to 100 nM.

`CNC(=O)N1CCc2c(-c3cc(OC)c(CN4CCC(CCCN5Cc6cc7c(cc6C5)C(=O)N(C5CCC(=O)NC5=O)C7=O)CC4)c(OC)c3)cn(C)c(=O)c2C1` (centres unmarked) [Compound D178]: the IC50 was less than 10 nM.

As to `CNC(=O)N1CCc2c(-c3cc(OC)c(CN4CCC(CCN5Cc6cc7c(cc6C5)C(=O)N(C5CCC(=O)NC5=O)C7=O)CC4)c(OC)c3)cn(C)c(=O)c2C1` (centres unmarked) [Compound D179], the IC50 was less than 10 nM.

In the case of `CNC(=O)N1CCc2c(-c3cc(OC)c(CN4CCC(CN5Cc6cc7c(cc6C5)C(=O)N(C5CCC(=O)NC5=O)C7=O)CC4)c(OC)c3)cn(C)c(=O)c2C1` (centres unmarked) [Compound D180], the concentration for half-maximal inhibition (IC50) was less than 10 nM.

`CNC(=O)N1CCc2c(-c3cc(OC)c(CN4CCC5(CCC(N6Cc7cc8c(cc7C6)C(=O)N(C6CCC(=O)NC6=O)C8=O)CC5)CC4)c(OC)c3)cn(C)c(=O)c2C1` (centres unmarked) [Compound D181] showed an IC50 of less than 10 nM.

In the case of `CNC(=O)N1CCc2c(-c3cc(OC)c(CN4CCC5(CC4)CC(N4Cc6cc7c(cc6C4)C(=O)N(C4CCC(=O)NC4=O)C7=O)C5)c(OC)c3)cn(C)c(=O)c2C1` (centres unmarked) [Compound D182], the IC50 is less than 10 nM.

In the case of `CNC(=O)N1CCc2c(-c3cc(OC)c(CN4CCC5(CC4)CC(Oc4ccc6c(c4)C(=O)N(C4CCC(=O)NC4=O)C6=O)C5)c(OC)c3)cn(C)c(=O)c2C1` (centres unmarked) [Compound D183], the 50% inhibitory concentration (IC50) is less than 10 nM.

Regarding `COc1cc(-c2cn(C)c(=O)c3c2CCN(C(=O)NCCN2CCC4C2CN4c2ccc4c(c2)C(=O)N(C2CCC(=O)NC2=O)C4=O)C3)cc(OC)c1CN(C)C` (centres unmarked) [Compound D184], the half-inhibitory concentration (IC50) is 10 to 100 nM.

In turn, `COc1cc(-c2cn(C)c(=O)c3c2CCN(C(=O)NCCN2CCC4(CCN4c4ccc5c(c4)C(=O)N(C4CCC(=O)NC4=O)C5=O)C2)C3)cc(OC)c1CN(C)C` (centres unmarked) [Compound D185] yielded a 50% inhibitory concentration (IC50) of 100 to 1000 nM.

Regarding `COc1cc(-c2cn(C)c(=O)c3c2CCN(C(=O)NCCN2CCC(OC4CCN(c5ccc6c(c5)C(=O)N(C5CCC(=O)NC5=O)C6=O)CC4)CC2)C3)cc(OC)c1CN(C)C` (centres unmarked) [Compound D186], the IC50 fell in the range of 10 to 100 nM.

`COc1cc(-c2cn(C)c(=O)c3c2CCN(C(=O)NCCN2CCC4C(C2)CN4c2ccc4c(c2)C(=O)N(C2CCC(=O)NC2=O)C4=O)C3)cc(OC)c1CN(C)C` (centres unmarked) [Compound D187] yielded an IC50 of 10 to 100 nM.

`COc1cc(-c2cn(C)c(=O)c3c2CCN(C(=O)NCCN2CCC4CCN(c5ccc6c(c5)C(=O)N(C5CCC(=O)NC5=O)C6=O)C4C2)C3)cc(OC)c1CN(C)C` (centres unmarked) [Compound D188] gave an IC50 of 100 to 1000 nM.

On to `COc1cc(-c2cn(C)c(=O)c3c2CCN(C(=O)NCCN2CCC4(C2)CN(c2ccc5c(c2)C(=O)N(C2CCC(=O)NC2=O)C5=O)C4)C3)cc(OC)c1CN(C)C` (centres unmarked) [Compound D189], for which the IC50 was in the range of 100 to 1000 nM.
